Measurements reported in ChEMBL document CHEMBL1201862, “PubChem BioAssay data set” (2004).
The source made the active and inactive calls.

How the values were obtained:
[1] = molecular target: Peroxisome proliferator-activated receptor gamma/Nuclear receptor coactivator 2 (Homo sapiens, UniProt P37231); assay type: functional;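 further: agonist potency for raising coactivator recruitment to the receptor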
[2] = molecular target: Peroxisome proliferator-activated receptor gamma/Nuclear receptor coactivator 1 (Homo sapiens, UniProt P37231); assay type: functional;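 further: agonist potency as compounds enhance coactivator SRC-1 recruitment to PPARgamma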
[3] = tested on: Streptococcus sp. 'group A'; test: Streptococcus pyogenes SK(-)GAS viability under kanamycin – luminescence, BacTiterGlo, confirmation, counter-screen for streptokinase expression inhibitor project, dose response (AID 1900); assay type: functional, organism-based
[4] = molecular target: Peroxisome proliferator-activated receptor gamma/Nuclear receptor coactivator 3 (Homo sapiens, UniProt P37231); assay type: functional;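 further: agonist potency for raising coactivator recruitment to the receptor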
Streptococcus = test: GAS UMAA2166 growth inhibition – luminescence, BacTiterGlo, counter-screen for streptokinase expression inhibitor project, dose response (AID 1915); assay type: functional, organism-based;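 further: potency for reduction of bacterial viability or growth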
[5] = molecular target: T1, Endoribonuclease toxin MazF (Escherichia coli K-12, UniProt P0AE70); test: activation of MazEF endoribonuclease cleavage – biochemical, fluorescence, single-stranded RNA substrate, uHTS hits, dose response (AID 588481); assay type: functional
T1 sequence (P0AE70 whole entry): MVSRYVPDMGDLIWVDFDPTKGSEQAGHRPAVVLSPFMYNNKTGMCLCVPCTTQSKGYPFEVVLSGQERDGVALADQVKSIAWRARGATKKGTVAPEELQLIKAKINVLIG

[6] = molecular target: T1, Endoribonuclease toxin MazF; test: substrate-only fluorescence increase artefacts – biochemical, single-stranded RNase substrate, counter-screen for MazEF activator project, dose response (AID 588502); assay type: functional
Cytochrome P450 2C9 = Cytochrome P450 2C9 (Homo sapiens, UniProt P11712)
Cytochrome P450 2C9, sequence (P11712 whole entry): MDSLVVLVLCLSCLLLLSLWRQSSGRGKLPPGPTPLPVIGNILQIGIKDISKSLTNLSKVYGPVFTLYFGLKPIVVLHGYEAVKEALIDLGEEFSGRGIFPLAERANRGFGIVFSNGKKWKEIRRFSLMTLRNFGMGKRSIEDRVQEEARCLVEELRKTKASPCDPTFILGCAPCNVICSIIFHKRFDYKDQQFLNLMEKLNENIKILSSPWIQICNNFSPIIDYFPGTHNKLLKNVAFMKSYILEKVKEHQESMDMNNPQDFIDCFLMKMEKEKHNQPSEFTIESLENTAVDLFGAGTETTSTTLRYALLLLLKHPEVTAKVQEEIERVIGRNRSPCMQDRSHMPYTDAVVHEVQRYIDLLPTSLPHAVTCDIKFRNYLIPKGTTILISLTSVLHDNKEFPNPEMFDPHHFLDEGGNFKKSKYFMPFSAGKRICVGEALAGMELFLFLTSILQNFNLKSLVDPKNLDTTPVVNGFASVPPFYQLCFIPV

[7] = molecular target: Voltage-gated inwardly rectifying potassium channel KCNH2 (Homo sapiens, UniProt Q12809); conditions: Potency;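 further: confirmatory quantitative high-throughput screen measuring inhibition of hERG channel activity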
Voltage-gated inwardly rectifying potassium channel KCNH2, sequence (Q12809 whole entry): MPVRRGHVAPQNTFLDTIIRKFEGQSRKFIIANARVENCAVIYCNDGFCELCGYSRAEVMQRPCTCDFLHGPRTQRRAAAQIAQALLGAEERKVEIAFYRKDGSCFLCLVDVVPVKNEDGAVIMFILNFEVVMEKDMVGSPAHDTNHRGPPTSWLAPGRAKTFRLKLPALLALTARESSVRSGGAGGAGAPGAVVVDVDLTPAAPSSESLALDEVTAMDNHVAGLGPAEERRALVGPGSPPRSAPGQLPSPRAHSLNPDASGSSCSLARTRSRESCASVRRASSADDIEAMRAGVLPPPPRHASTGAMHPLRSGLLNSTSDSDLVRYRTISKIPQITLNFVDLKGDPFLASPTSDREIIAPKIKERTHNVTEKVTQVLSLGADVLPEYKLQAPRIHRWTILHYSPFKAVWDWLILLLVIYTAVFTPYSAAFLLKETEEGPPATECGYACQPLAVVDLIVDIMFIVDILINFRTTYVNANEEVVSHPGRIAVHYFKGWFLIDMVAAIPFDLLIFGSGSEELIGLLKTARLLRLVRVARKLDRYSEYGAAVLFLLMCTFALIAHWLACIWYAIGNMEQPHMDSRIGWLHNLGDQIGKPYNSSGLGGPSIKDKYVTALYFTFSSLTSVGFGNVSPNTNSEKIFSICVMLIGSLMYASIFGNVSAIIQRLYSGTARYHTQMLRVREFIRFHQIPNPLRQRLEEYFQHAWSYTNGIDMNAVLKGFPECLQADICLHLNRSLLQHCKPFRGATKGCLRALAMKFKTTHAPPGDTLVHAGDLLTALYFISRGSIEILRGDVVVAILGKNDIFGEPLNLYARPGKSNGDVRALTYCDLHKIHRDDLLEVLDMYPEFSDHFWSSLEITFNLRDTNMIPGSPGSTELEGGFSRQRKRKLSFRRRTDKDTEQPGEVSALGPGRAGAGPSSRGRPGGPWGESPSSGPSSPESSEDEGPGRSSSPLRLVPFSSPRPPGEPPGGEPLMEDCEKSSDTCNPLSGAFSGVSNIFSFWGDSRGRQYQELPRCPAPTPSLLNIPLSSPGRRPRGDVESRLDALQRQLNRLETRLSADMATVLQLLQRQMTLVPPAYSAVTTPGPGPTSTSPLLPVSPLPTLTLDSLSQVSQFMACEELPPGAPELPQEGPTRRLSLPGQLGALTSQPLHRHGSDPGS

[8] = luciferase reporter signal suppression in cells – H4 neuroglioma cells, luminescence, dose response (AID 1990); assay type: functional, cell-based
HEK293 [9] = test: Fluorescence-based counterscreen for potentiators or agonists of NPY-Y2: cell-based high-throughput dose response assay to identify inhibitors of cyclic nucleotide gated ion channel (CNGC) activity. In this assay, the parental HEK293 cell line transfected with a cyclic-nucleotide gated ion channel (CNGC)-based cAMP sensor is used to measure inhibition of isoproterenol-induced CNGC activity by test compound.; assay type: functional; conditions: Homo sapiens
[10] = molecular target: Sphingosine 1-phosphate receptor 2 (Homo sapiens, UniProt O95136); test: Dose Response Cell Based Assay for Antagonists of the S1P2 Receptor. [Related pubchem assays: 856, 736 ]; assay type: functional
BJ [11] = test: BJ-TERT fibroblast viability loss – cell-based, RAS-independent, luminescence, dose response (AID 1933); assay type: functional; conditions: Homo sapiens
[12] = molecular target: T2, Neuropeptide Y receptor type 2 (Homo sapiens, UniProt P49146); test: Fluorescence-based cell-based high-throughput dose response assay for agonists of NPY-Y2. [Related pubchem assays: 1703 (Screening assay (CNGC inhibitors).), 1359 (Screening assay (NPY-Y2 potentiators or agonists).), 1304 (Screening assay (NPY-Y1 potentiators or agonists).), 1710 (Screening assay (NPY-Y2 agonists).), 1791 (Summary AID.)]; assay type: functional
T2 sequence (P49146 whole entry): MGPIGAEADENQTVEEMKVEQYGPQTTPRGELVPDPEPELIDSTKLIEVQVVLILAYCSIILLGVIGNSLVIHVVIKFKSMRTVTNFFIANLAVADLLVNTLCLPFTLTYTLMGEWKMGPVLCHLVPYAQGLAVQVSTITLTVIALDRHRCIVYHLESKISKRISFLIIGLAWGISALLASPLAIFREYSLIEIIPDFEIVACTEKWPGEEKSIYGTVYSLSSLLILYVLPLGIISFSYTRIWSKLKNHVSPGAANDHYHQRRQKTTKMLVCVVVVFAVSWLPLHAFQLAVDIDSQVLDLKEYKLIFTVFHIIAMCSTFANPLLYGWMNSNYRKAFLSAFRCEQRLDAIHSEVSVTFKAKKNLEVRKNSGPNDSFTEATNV

[13] = Luminescence Cell-Based Dose Response HTS to Identify Inhibitors of 5'UTR Stem-Loop Driven Prion Protein mRNA Translation in H4 Neuroglioblastoma Cells. [Related pubchem assays: 1827 (Project Summary), 1813 (Primary HTS)]; assay type: functional
[14] = alpha-synuclein stem-loop luciferase translation blockers – H4 neuroglioma cells, luminescence, confirmation (AID 1988); assay type: functional, cell-based
BJ [15] = test: cells; assay type: functional, cell-based; conditions: Homo sapiens
[16] = Luminescence-based dose response cell-based high throughput screening assay for cytotoxic compounds using the IEC-6 intestinal epithelial cell line. [Related pubchem assays: 1858 (Summary AID.), 1825 (Counterscreen.), 1907 (Confirmation screen.)]; assay type: functional
[17] = molecular target: T3, Neuropeptide Y receptor type 1 (Homo sapiens, UniProt P25929); test: Fluorescence-based counterscreen for agonists of NPY-Y2: cell-based high-throughput dose response assay for agonists of NPY-Y1.; assay type: functional
T3 sequence (P25929 whole entry): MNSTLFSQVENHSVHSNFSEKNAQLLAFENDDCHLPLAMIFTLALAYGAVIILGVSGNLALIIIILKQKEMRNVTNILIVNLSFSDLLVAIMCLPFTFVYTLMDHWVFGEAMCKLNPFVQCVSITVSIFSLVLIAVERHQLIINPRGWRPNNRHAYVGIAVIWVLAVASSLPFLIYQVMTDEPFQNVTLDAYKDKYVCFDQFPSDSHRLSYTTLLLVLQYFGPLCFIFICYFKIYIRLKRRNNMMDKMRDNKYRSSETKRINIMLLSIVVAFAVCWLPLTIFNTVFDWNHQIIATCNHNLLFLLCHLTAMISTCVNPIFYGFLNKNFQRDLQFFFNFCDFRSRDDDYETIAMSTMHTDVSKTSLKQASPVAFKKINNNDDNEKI

BJ [18] = test: BJ-TERT-LT-ST fibroblast viability loss – cell-based, RAS-independent, luminescence, dose response (AID 1935); assay type: functional; conditions: Homo sapiens;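 further: BJ fibroblasts immortalized with TERT plus LT and ST oncogenes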
[19] = DRD fibroblast viability loss – cell-based, non-viral oncogenic, luminescence, dose response (AID 1934); assay type: functional; conditions: Homo sapiens
[20] = HEK-293T viability loss after treatment – luminescence, T-cell screen hits, cytotoxicity control for TCR NF-kB inhibitor project, dose response (AID 489026); assay type: functional, cell-based;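 further: cells exposed to compound about 14 hours before the viability readout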
HEK293 [21] = test: EBV LMP1 TES2 canonical NF-kB signalling blockers – cell-based, HEK293, luciferase, cherry-pick, dose response (AID 588343); assay type: functional; conditions: Homo sapiens
[22] = molecular target: Latent membrane protein 1 (Human herpesvirus 4 (strain B95-8), UniProt P03230); test: LMP1 TES1 pathway selectivity over dsRED control – imaging, HEK293T, dual-color eGFP/dsRED, cherry-picks, selectivity assay for LMP1 NF-kB inhibitor project, dose response (AID 588398); assay type: functional, cell-based
BJ [23] = test: growth inhibition of engineered Ras-driven BJ cells – cell-based, alamar blue fluorescence, cherrypicked samples, dose response (AID 2631); assay type: functional; conditions: Homo sapiens;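 further: confirmatory dose-response assay in RAS-dependent BJ fibroblasts engineered with TERT, LT and ST, with cytotoxicity read by fluorescence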
INS1 = test: INS-1E survival protection against cytokine death – cell-based, luminescence, retest, dose response (AID 449756); assay type: functional; conditions: Rattus norvegicus;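 further: cell death triggered by IL-1 beta plus TNF-alpha plus IFN-gamma mixture; protective hits raise ATP signal compared with cytokine alone wells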
[24] = activation of miR-122 Renilla sensor silencing – cell-based, Huh7 psiCHECK-miR122, Renilla luciferase, cherry-picked, dose response (AID 651956); assay type: functional;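 further: huh7 hepatoma cells stably carrying a psiCHECK-2 miR-122 sensor plasmid; renilla luciferase signal reporting endogenous miR-122 activity after 48 h compound exposure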
[25] = general mammalian cell viability loss – inhibitor set, cherry-pick, set 2, cytotoxicity control for miR-122 modulator project, dose response (AID 720697); assay type: functional, cell-based
[26] = general mammalian cell viability loss – activator set, cherry-pick, cytotoxicity control for miR-122 modulator project, dose response (AID 720690); assay type: functional, cell-based;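 further: HEK293T human cells scored for general mammalian cytotoxicity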
[27] = molecular target: Beta-2 adrenergic receptor (Homo sapiens, UniProt P07550); test: ADRB2 activation measured by internalization – cell-based, FAP fluorogen, flow cytometry, cherry pick 1, dose response (AID 588763); assay type: functional
Beta-2 adrenergic receptor, sequence (P07550 whole entry): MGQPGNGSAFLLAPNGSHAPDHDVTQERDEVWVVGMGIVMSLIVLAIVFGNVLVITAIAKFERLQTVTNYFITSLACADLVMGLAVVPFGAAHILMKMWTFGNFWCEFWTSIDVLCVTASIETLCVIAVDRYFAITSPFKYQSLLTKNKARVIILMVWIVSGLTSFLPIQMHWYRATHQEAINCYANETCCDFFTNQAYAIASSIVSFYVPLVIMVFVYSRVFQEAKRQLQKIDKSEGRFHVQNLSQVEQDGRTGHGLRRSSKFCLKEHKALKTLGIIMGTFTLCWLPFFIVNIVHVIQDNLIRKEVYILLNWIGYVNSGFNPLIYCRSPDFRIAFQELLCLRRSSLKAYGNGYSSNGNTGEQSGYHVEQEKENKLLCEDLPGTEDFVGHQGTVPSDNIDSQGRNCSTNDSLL

DNA topoisomerase = DNA topoisomerase (Yersinia pestis, UniProt A0A2S9PM60); test: Yersinia topoisomerase I cleavage product accumulation – biochemical, cherry-pick, dose response (AID 588525)
DNA topoisomerase, sequence (A0A2S9PM60 whole entry): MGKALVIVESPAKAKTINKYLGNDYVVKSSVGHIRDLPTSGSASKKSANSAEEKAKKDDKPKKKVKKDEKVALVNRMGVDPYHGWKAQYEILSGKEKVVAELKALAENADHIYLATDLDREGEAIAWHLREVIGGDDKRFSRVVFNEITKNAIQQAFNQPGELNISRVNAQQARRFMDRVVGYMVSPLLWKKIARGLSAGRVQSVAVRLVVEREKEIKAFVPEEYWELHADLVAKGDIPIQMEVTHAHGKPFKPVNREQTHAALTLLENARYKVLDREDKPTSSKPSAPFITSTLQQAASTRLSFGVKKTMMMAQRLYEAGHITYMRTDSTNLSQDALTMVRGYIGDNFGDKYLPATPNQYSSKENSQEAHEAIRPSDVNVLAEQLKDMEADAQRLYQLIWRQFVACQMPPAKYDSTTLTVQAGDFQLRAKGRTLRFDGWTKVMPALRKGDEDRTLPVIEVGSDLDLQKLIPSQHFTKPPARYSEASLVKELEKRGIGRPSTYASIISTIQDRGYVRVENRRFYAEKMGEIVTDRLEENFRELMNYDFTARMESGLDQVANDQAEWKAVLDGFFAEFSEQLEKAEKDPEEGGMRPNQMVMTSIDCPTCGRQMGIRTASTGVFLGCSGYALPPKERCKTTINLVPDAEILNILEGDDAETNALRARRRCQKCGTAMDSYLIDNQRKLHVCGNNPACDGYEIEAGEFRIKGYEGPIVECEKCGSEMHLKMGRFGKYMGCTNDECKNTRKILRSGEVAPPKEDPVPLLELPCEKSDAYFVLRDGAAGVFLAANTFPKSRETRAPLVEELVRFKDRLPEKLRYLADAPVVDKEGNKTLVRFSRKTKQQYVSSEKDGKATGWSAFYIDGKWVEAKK

Peroxisome proliferator-activated receptor gamma/Nuclear receptor coactivator 2, sequence (P37231 whole entry): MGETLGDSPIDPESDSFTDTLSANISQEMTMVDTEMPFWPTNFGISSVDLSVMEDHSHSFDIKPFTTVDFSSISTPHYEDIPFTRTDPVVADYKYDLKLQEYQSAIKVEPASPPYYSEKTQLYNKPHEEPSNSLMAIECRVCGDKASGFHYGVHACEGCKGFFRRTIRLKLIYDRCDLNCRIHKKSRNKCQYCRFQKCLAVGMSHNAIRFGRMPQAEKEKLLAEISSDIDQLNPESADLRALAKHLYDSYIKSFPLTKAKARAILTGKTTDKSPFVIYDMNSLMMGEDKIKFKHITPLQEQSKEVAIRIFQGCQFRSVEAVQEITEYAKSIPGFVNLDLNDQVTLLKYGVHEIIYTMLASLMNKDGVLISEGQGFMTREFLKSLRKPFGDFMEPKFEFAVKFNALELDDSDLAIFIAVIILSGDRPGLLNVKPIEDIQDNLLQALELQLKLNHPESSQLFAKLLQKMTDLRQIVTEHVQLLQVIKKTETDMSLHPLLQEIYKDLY
Peroxisome proliferator-activated receptor gamma/Nuclear receptor coactivator 2, sequence (Q15596 whole entry, further chain): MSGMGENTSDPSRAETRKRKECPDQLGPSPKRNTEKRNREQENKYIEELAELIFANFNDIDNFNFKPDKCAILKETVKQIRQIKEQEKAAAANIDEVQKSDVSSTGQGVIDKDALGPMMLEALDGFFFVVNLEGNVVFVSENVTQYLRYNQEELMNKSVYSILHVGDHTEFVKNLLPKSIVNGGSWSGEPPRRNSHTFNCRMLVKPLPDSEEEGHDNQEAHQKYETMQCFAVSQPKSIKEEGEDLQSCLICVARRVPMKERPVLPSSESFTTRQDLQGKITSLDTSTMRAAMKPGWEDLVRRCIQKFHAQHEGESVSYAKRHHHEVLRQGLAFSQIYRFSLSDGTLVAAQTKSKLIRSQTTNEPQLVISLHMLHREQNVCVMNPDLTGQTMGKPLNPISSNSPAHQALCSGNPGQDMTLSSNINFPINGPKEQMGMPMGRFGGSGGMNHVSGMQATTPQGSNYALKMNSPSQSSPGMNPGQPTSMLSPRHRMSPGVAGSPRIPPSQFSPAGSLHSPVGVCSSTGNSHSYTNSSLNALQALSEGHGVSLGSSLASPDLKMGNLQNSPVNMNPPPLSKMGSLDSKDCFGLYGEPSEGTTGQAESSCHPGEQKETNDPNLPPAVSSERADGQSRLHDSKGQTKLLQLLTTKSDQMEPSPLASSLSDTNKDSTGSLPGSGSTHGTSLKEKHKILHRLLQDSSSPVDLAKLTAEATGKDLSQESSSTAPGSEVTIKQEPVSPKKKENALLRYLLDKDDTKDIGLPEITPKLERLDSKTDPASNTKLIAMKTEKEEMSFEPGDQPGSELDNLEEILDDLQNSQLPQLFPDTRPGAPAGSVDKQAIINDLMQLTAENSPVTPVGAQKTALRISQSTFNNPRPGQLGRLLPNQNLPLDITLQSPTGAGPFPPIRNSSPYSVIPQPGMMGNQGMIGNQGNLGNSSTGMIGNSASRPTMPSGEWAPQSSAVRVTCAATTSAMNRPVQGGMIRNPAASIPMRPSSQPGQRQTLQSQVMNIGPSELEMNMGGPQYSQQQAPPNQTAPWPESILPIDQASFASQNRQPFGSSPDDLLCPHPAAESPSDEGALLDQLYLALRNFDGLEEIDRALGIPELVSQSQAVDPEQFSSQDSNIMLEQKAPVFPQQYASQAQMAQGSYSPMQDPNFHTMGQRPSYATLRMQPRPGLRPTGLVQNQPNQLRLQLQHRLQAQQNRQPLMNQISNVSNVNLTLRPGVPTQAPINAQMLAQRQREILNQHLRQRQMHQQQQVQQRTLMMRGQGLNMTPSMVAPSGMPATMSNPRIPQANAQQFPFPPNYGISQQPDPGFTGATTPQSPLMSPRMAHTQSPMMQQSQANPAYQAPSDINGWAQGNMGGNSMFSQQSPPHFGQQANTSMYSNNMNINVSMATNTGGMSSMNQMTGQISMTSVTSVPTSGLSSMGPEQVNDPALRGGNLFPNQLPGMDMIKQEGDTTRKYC

With `N#Cc1ccc(-c2ccccc2)nc1SCC(=O)c1cc2ccccc2oc1=O` the EC50 [1] was 13.7 µM (not active), the EC50 [2] was 15.5 µM (not active) and the EC50 [3] was 0.862 µM (active). The EC50 [4] was 16.4 µM (not active), the EC50 (Streptococcus) was 2.22 µM (active) and the EC50 [5] was > 99 µM (inactive). The EC50 [6] was > 99 µM (inactive).

For `CC(C)COC(=O)OCN1C(=O)CN(CCN2CC(=O)N(COC(=O)OCC(C)C)C(=O)C2)CC1=O` [SOBUZOXANE], the AC50 (Cytochrome P450 2C9) was 39.8 µM (inconclusive) and the AC50 [7] was 35.5 µM (inconclusive).

With `O=C(NC(Nc1nc2ccc([N+](=O)[O-])cc2s1)(C(F)(F)F)C(F)(F)F)c1ccccc1` the EC50 [8] was 0.394 µM (active), the EC50 (HEK293 [9]) was > 35.4 µM (not active) and the IC50 [10] was 0.682 µM (active). The EC50 (BJ [11]) was 1.41 µM (active), the EC50 [12] was 31.9 µM (not active) and the EC50 [13] was 7.5 µM (active). For the same compound, the EC50 [14] was 0.449 µM (active), the EC50 (BJ [15]) was 1.34 µM (active) and the IC50 [16] was 1.03 µM (active). The EC50 [17] was 35.3 µM (not active), the EC50 (BJ [18]) was 2.85 µM (inconclusive) and the EC50 [19] was 1.66 µM (active). The IC50 [20] was > 80 µM (inactive), the AC50 (HEK293 [21]) was 0.208 µM (active) and the AC50 [22] was 0.816 µM (active). The EC50 (BJ [23]) was 0.727 µM (active), the AC50 (INS1) was 0.298 µM (active) and the AC50 [24] was 1.41 µM (active). The AC50 [25] was < 0.195 µM (active) and the AC50 [26] was 0.546 µM (active).

With `CN(C)c1ccc(-c2noc(C3CCN(S(=O)(=O)c4cccc(Cl)c4)CC3)n2)cc1` the EC50 [27] was 1.23 µM (active).

In the case of `Cc1ccc(SCc2cc(O)nc(Nc3nc(C)c4ccc(C)cc4n3)n2)cc1`, the AC50 (DNA topoisomerase) was 2.96 µM (active).
